Source: patent publication US9068228B2, “Method for screening ameliorants of dry skin caused by atopic dermatitis using bleomycin hydrolase activity as indicator” (Shiseido Company, Ltd., priority 2009, dated 2015)
“Also recorded” adds a separate entry of the source.

How the values were obtained:
Format in all cases: cell-based, human
IRF-1 mRNA = assay: Real-time RT-PCR of transcription factor expression under cytokines (FIG. 22)
Method: (§1) The transcription levels of BH and related factors were analyzed by quantitative real-time RT-PCR. Total RNA was extracted from cultured cells using Isogen (Nippon Gene, Tokyo, Japan) in accordance with the manufacturer's protocol. The total RNA was reverse-transcribed to cDNA using SuperScript™ II (Invitrogen, Carlsbad, Calif.). Real-time RT-PCR was carried out with the LightCycler Raid Cycler System using the LightCycler 480 SYBR Green I Master (Roche Diagnostics) in accordance with the manufacturer's protocol. Glyceraldehyde 3-phosphate dehydrogenase (GAPDH) was used as a reference gene. Specificity of the amplified fragments was confirmed by quantitative analysis of melting curves using LightCycler analytical software. The amounts of mRNA were standardized based on the mRNA of GAPDH and finally indicated as a ratio to mRNA of an untreated control.
(§2) An investigation was made of the cytokine-dependent regulation of these transcription factors.

IRF-2 = assay: as above
Method: as §1, §2

BH promoter = BH promoter luciferase assay in transfected keratinocytes (FIG. 20B)
Method: The graphs indicate the effects of cytokines Th1, Th2 and Th17 on BH gene expression. […] The graphs indicate BH promoter activity in cultured keratinocytes in the presence of IFN-γ. Keratinocytes were transfected with pGL3-216 containing intact IRF-1/2 binding sites of BH promoter regions followed by treating for 24 hours with IFN-γ (upper panel). Keratinocytes were transfected with ΔpGL3-616 (IRF-1/2 deletion mutants) followed by treating for 24 hours in the presence or absence of IFN-γ or IL-4 at 10 ng/ml (lower panel). […] Keratinocytes were transfected with siRNA (40 nM) of IRF-1 or IRF-2 followed by culturing for 24 hours, treating with IFN-γ at 10 ng/ml and isolating RNA after further culturing for 24 hours. The panel on the right indicates the silencing effects of IRF-1 and IRF-2.
Keratinocytes were cultured in a 12-well tissue culture plate at a density of 5×10^4 cells/well, and were transfected using FuGene HD Transfection reagent (Roche Diagnostics, Basel, Switzerland) and 1 μg aliquots of each construct. […] Luciferase activity was analyzed using the Dual Luciferase Reporter Assay System (Promega) and Autolumat Plus Luminometer (Berthold Technologies, Bad Wildbad, Germany). […]

BH mRNA = assay: Real-time RT-PCR analysis of BH gene expression under cytokines (Experiment 6, FIG. 20A); details: proliferative keratinocytes, 24 hours, ratio to untreated control
Method: (§3) Normal human epidermal keratinocytes derived from neonatal epidermis (Kurabo, Osaka, Japan) were cultured in EpiLife medium (Cascade Biologics, Portland, Oreg.) containing low-concentration (0.03 mM) calcium and HKGS Growth Supplement (Cascade Biologics). All cells were incubated at 37° C. while supplying 5% CO2 and were used within 4 passages. Cells were collected at 70% confluence, 100% confluence, 2 days after confluence and 2 days after confluence in 2 mM calcium.
as §1
Since BH is an NMF-generating enzyme, it has the potential to be involved in the pathophysiology of AD. Accordingly, an investigation was made of the effects of cytokines Th1, Th2 and Th17 on BH gene expression. […] Similar results were obtained with differentiated keratinocytes (data not shown). A promoter assay was carried out in order to determine the role of IFN-γ in regulation of BH gene expression, and response elements were specified. […] In addition, IRF-1 and IRF-2 gene expression was inhibited using small interfering RNA (siRNA) in order to determine whether or not IRF-1/2 is an essential mediator of IFN-γ-induced down-regulation of BH.

bleomycin hydrolase mRNA = assay: Effect of cytokines on bleomycin hydrolase mRNA expression by quantitative PCR (Experiment 5, FIG. 14); details: proliferative stage cultured keratinocytes, incubated 24 hours; IL-4 and TNF-α 0.1-10 ng/ml, IFN-γ 1.0-100 ng/ml
Method: as §3
The expression level of bleomycin hydrolase in keratinocytes was measured by quantitative PCR using the method described below. Measurement was carried out using the Light Cycler 480 (Roche Diagnostics GmbH, Mannheim, Germany), while Light Cycler FastStart DNA Master CYBR Green I was used for the reagent. 0.6 μl aliquots of each of the following bleomycin hydrolase primers and […] of water were added to 10 μl of SYBR Green I master mix to bring to a total volume of 20 μl followed by carrying out 45 cycles of PCR consisting of 15 seconds at 95° C., 20 seconds at 55° C. and 20 seconds at 72° C. The results obtained were corrected by comparing with the results for a housekeeping gene in the form of G3PDH. • Forward primer: […] (SEQ ID NO. 1) • Reverse primer: […] (SEQ ID NO. 2)
IL-4 (final concentration: 0.1, 1.0 or 10 ng/ml), TNF-α (final concentration: 0.1, 1.0 or 10 ng/ml) and IFN-γ (final concentration: 1.0, 10 or 100 ng/ml) were respectively added to proliferative stage cultured keratinocytes, and after incubating for 24 hours, RNA was collected using Isogen. Expression of bleomycin hydrolase mRNA was measured by quantitative PCR. Based on the results shown in FIG. 14, interleukin-4 (IL-4), which is a type of Th2 cytokine, was determined to down-regulate expression of bleomycin hydrolase.

Sp-1 = assay: Real-time RT-PCR of transcription factor expression under cytokines (FIG. 22)
Method: as §1, §2

MZF-1 = assay: as above
Method: as §1, §2

[1] = cultured keratinocytes, concentration not given

Substance | expression of IRF-1 mRNA (IRF-1 mRNA; IFN-γ, dose-dependent) | expression of IRF-2 (IRF-2; in the presence of IFN-γ) | BH promoter activity after deletion of IRF-1/2 binding sequence (BH promoter; keratinocytes transfected with IRF-1/2 deletion mutant, 10 ng/ml, 24 hours) | BH promoter activity (BH promoter; proliferative keratinocytes transfected with pGL3-BH-616 containing IRF-1/2 binding sequence, IFN-γ 24 hours) | expression of BH mRNA (BH mRNA) | expression of BH mRNA (BH mRNA; listed as IFN) | expression of bleomycin hydrolase mRNA (bleomycin hydrolase mRNA) | expression of Sp-1 (Sp-1; IL-4 at 10 ng/ml) | expression of Sp-1 (Sp-1; [1]) | expression of IRF-1 (IRF-1 mRNA; IL-4 at 100 ng/ml only) | expression of MZF-1 (MZF-1; IL-4 at 10 ng/ml) | expression of MZF-1 (MZF-1; [1]) | expression of IRF-2 (IRF-2; IL-4 at 100 ng/ml only)
IFN-γ: Human IFN-γ purchased from Peprotech EC; Th1 cytokine | strongly up-regulates | up-regulated | no longer inhibited | down-regulated | down-regulated; also recorded: remarkably decreased | significantly decreased | significantly increases |  |  |  |  |  | 
IL-4: Human IL-4 purchased from Peprotech EC; Th2 cytokine |  |  |  |  | did not demonstrate any direct action whatsoever |  | down-regulates | most effectively down-regulated | significantly inhibited; also recorded: down-regulated | significantly enhanced | most effectively down-regulated | significantly inhibited; also recorded: down-regulated | significantly enhanced
IL-13: Human IL-13 produced by R&D Systems Inc.; Th2 cytokine |  |  |  |  | did not demonstrate any direct action whatsoever |  |  |  | significantly inhibited |  |  | significantly inhibited | 
TNF-α |  |  |  |  |  |  | significantly increases |  |  |  |  |  | 
